# Measured values from patent US20140121235A1, “Method for Treating S6K-Overexpressing Cancers” (Rush University Medical Center, priority 2012, published 2014).
# “Also recorded” adds a separate entry of the source.
# Assays:
# [1] = system: carbomoyl-phosphate synthetase 2 (CAD) Ser-1859 phosphorylation; experiment: CAD phosphorylation in A375 cells (phosphor-specific antibody); format: cell-based; conditions: A375 cells, 0, 50, 100 or 200 μM for 2 hours
# Experimental: FIG. 12 illustrates inhibition of carbamoyl-phosphate synthetase 2 (CAD) by A 77 1726.
# The ability of […] to inhibit phosphorylation of CAD at the Ser-1859 site was tested. A375 melanoma tumor cell line cultures were pretreated with the 0, 50, 100 or 200 μM A 771726 for 2 hours. Total cell lysates were prepared and analyzed for the phosphorylation of CAD by a phosphor-specific antibody.
# [2] = cited from earlier work
# Raf-1 phosphorylation = experiment: Western blot of Raf-1 phosphorylation in A375 cells; format: cell-based
# Experimental: A375 cells seeded in a 6-well plate were starved in DMEM medium containing 0.5% FBS for 2 hr and treated with the indicated concentration of A77 1726 or PLX 4720 (1 μM) for another 2 hr (A) or treated with A77 1726 (100 μM) for the indicated time (B & C). Cells were harvested and analyzed for protein phosphorylation by specific antibodies as indicated. Protein loading was monitored by stripping membrane and re-probing with antibodies against non-phosphorylated proteins. (D) Uridine fails to reverse the effect of A77 1726 on the PI-3 and MAP kinase pathways. A375 cells seeded in a 6-well plate were starved in DMEM medium containing 05% FBS for 2 hr and treated with the indicated concentration of A77 1726 in the absence or presence of uridine (200 μM). Phosphorylated and total proteins were analyzed by Western blot as described above.
# Cells grown in 6-well plates were harvested and lysed in NP-40 lysis buffer (50 mM Tris-HCI (pH 8.0), 150 mM NaCl, 1% NP-40, 5 mM EDTA, 10 μg/ml aprotinin, 10 μg/ml leupeptin, and 1 mM phenylmethylsulfonyl fluoride). After incubation on ice for 30 min, the cell lysates were prepared by spinning down at 4° C., 15,000 rpm for 15 min. […]
# [3] = biological target: recombinant p70 S6 kinase (S6K1) (Homo sapiens, UniProt P23443); experiment: In vitro p70 S6 kinase assay (ADP-Glo Kinase assay system); format: biochemical; conditions: 30 min pre-incubation, ATP 10 μM, 1 hr, read-out: IC50, inhibition of recombinant S6K1 activity
# recombinant p70 S6 kinase (S6K1), sequence (P23443 whole entry): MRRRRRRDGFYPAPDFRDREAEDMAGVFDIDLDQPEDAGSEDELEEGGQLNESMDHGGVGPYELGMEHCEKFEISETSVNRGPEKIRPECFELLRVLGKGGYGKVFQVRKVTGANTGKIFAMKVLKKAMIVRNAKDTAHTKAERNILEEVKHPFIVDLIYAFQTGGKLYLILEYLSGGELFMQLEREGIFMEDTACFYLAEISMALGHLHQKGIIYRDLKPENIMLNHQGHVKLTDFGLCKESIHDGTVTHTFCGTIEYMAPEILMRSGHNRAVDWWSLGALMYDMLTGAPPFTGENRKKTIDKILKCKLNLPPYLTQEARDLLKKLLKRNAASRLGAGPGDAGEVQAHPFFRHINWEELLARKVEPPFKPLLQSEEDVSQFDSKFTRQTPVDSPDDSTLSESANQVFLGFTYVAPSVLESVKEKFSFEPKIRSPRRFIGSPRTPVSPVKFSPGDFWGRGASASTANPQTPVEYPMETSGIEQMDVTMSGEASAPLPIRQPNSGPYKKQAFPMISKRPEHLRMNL
# Experimental: Leflunomide and A77 1726 diluted at the final concentrations as indicated were pre-mixed with S6K1 for 30 min, followed by the addition of peptide substrate of S6K1 and incubation for 1 hr. S6K1 activity was measured by using a ADP-Glo™ system. The experiment was repeated with similar results. The data represents the mean±standard deviation from one experiment in triplicate.
# The ability of lefiunomide and A77 1726 to inhibit p70 S6 kinase assay was conducted by using an ADP-Glo™ Kinase assay system (Promega Corporation, Madison, Wis.). Briefly, A77 1726 or leflunomide diluted in the kinase buffer was mixed with recombinant p70 S6 kinase (100 ng/reaction) and incubated at room temperature for 30 min. Peptide substrate of p70 S6 kinase (5 μg/reaction) and ATP (10 μM, final concentration) was added, with a total final volume of 25 μl. After incubation for 1 hr, ADP-Glo™ reagent (25 μl) was added to each reaction. After incubation for 40 min, kinase detection substrate (luciferin) (50 μl/reaction) was added. After incubation fix 30 min, luciferase activity was measured by reading in a luminescence plate reader. The experiment was conducted in triplicate and repeated once with similar results. The data from one experiment were presented as mean±standard deviation.
# [4] = mice, single dose of 35 mg/kg of leflunomide
compound,measurement,setting,value
C/C(O)=C(\C#N)C(=O)Nc1ccc(C(F)(F)F)cc1 [A77 1726],effect on CAD phosphorylation at Ser-1859,[1],inhibited phosphorylation in a dose-dependent manner
same,serum half-life of A77 1726,[2]; mice treated with leflunomide at a dose of 35 mg,15 h
same,serum concentration of A77 1726 at 24 hr,"[2]; mice, 24 hr after single dose of 35 mg/kg of leflunomide",250 µM
same,peak serum concentration of A77 1726,[2]; [4],500 µM
same,time to peak concentration of A77 1726,[2]; [4],≤ 4 h
same,effect on Raf-1 phosphorylation,Raf-1 phosphorylation,no increased Raf-1 phosphorylation; also recorded: had no effect
same,IC50,[3],~80 µM
